Reference: the NIST ThermoML archive (doi:10.1021/je501178z)
Values joined by “and” are separate entries in the source; they are usually repeats but may differ in a detail not shown here. Equal entries are not always repeated. Numbers after ± are expanded uncertainties.

Experiment: mn = molality of the nth substance listed, in mol/kg
Settings: 101.3 kPa, Liquid; for viscosity: Capillary tube (Ostwald / Ubbelohde) method; for mass density: Vibrating tube method

NCC(=O)O [2-aminoacetic acid] + O
Settings | mass density, 293.15 K [kg/m3] | mass density, 303.15 K [kg/m3] | mass density, 313.15 K [kg/m3] | mass density, 323.15 K [kg/m3] | viscosity, 293.15 K [mPa·s] | viscosity, 303.15 K [mPa·s] | viscosity, 313.15 K [mPa·s] | viscosity, 323.15 K [mPa·s]
m1 = 0.1002 | 1001.41 ± 0.15 | 998.8 ± 0.15 | – | 991.11 ± 0.15 | 1.015 ± 0.021 | 0.809 ± 0.017 | 0.663 ± 0.014 | 0.555 ± 0.012
m1 = 0.2 | 1004.57 ± 0.15 | 1001.91 ± 0.15 | – | 994.14 ± 0.15 | 1.029 ± 0.022 | 0.82 ± 0.017 | 0.672 ± 0.014 | 0.563 ± 0.012
m1 = 0.3002 | 1007.7 ± 0.15 | 1004.98 ± 0.15 | 1001.42 ± 0.15 | 997.14 ± 0.15 | 1.042 ± 0.022 | 0.831 ± 0.018 | 0.681 ± 0.014 | 0.571 ± 0.012
m1 = 0.4001 | 1010.77 ± 0.15 | 1008 ± 0.15 | 1004.4 ± 0.15 | 1000.09 ± 0.15 | 1.057 ± 0.022 | 0.842 ± 0.018 | 0.691 ± 0.015 | 0.579 ± 0.012
m1 = 0.5001 | 1013.8 ± 0.15 | 1010.98 ± 0.15 | 1007.35 ± 0.15 | 1003.01 ± 0.15 | 1.072 ± 0.023 | 0.855 ± 0.018 | 0.701 ± 0.015 | 0.587 ± 0.012
m1 = 0.6 | 1016.78 ± 0.16 | 1013.91 ± 0.15 | 1010.25 ± 0.15 | 1005.88 ± 0.15 | 1.086 ± 0.023 | 0.867 ± 0.018 | 0.711 ± 0.015 | 0.596 ± 0.013
m1 = 0.6998 | 1019.71 ± 0.16 | 1016.8 ± 0.16 | 1013.11 ± 0.15 | 1008.72 ± 0.15 | 1.101 ± 0.023 | 0.878 ± 0.018 | 0.721 ± 0.015 | 0.605 ± 0.013

C[C@H](N)C(=O)O [(S)-2-aminopropanoic acid] + O
Settings | mass density, 293.15 K [kg/m3] | mass density, 303.15 K [kg/m3] | mass density, 313.15 K [kg/m3] | mass density, 323.15 K [kg/m3] | viscosity, 293.15 K [mPa·s] | viscosity, 303.15 K [mPa·s] | viscosity, 313.15 K [mPa·s] | viscosity, 323.15 K [mPa·s]
m1 = 0.1 | 1001.06 ± 0.18 | 998.48 ± 0.18 | 995.01 ± 0.18 | 990.81 ± 0.18 | 1.027 ± 0.022 | 0.817 ± 0.017 | 0.668 ± 0.014 | 0.559 ± 0.012
m1 = 0.2 | 1003.88 ± 0.18 | 1001.27 ± 0.18 | 997.76 ± 0.18 | 993.55 ± 0.18 | 1.053 ± 0.022 | 0.837 ± 0.018 | 0.684 ± 0.015 | 0.571 ± 0.012
m1 = 0.3 | 1006.66 ± 0.18 | 1004.01 ± 0.18 | 1000.47 ± 0.18 | 996.24 ± 0.18 | 1.079 ± 0.023 | 0.856 ± 0.018 | 0.7 ± 0.015 | 0.584 ± 0.012
m1 = 0.4002 | 1009.39 ± 0.18 | 1006.71 ± 0.18 | 1003.14 ± 0.18 | 998.9 ± 0.18 | 1.107 ± 0.023 | 0.877 ± 0.019 | 0.715 ± 0.015 | 0.596 ± 0.013
m1 = 0.5001 | 1012.06 ± 0.18 | 1009.35 ± 0.18 | 1005.76 ± 0.18 | 1001.5 ± 0.18 | 1.134 ± 0.024 | 0.897 ± 0.019 | 0.731 ± 0.016 | 0.609 ± 0.013
m1 = 0.6002 | 1014.69 ± 0.18 | 1011.95 ± 0.18 | 1008.33 ± 0.18 | 1004.06 ± 0.18 | 1.163 ± 0.025 | 0.919 ± 0.019 | 0.749 ± 0.016 | 0.622 ± 0.013
m1 = 0.6999 | 1017.27 ± 0.18 | 1014.5 ± 0.18 | 1010.86 ± 0.18 | 1006.58 ± 0.18 | 1.191 ± 0.025 | 0.94 ± 0.02 | 0.765 ± 0.016 | 0.635 ± 0.013

OC[C@@H](O)[C@@H](O)[C@H](O)[C@H](O)CO [D-mannitol] + O
Settings | mass density, m1 = 0.2 [kg/m3] | mass density, m1 = 0.4 | mass density, m1 = 0.6 [kg/m3] | mass density, m1 = 0.8 [kg/m3] | mass density, m1 = 1 [kg/m3] | viscosity, m1 = 0.2 [mPa·s] | viscosity, m1 = 0.4 | viscosity, m1 = 0.6 [mPa·s] | viscosity, m1 = 0.8 [mPa·s] | viscosity, m1 = 1
293.15 K | 1010.52 ± 0.15 | 1022.31 ± 0.16 kg/m3 | 1033.43 ± 0.16 | 1043.98 ± 0.16 | 1054.13 ± 0.17 | 1.104 ± 0.023 | 1.221 ± 0.026 mPa·s | 1.336 ± 0.028 | 1.494 ± 0.031 | 1.643 ± 0.034 mPa·s
303.15 K | 1007.82 ± 0.15 | 1019.39 ± 0.16 kg/m3 | 1030.35 ± 0.16 | 1040.88 ± 0.16 | 1050.85 ± 0.17 | 0.874 ± 0.018 | 0.959 ± 0.02 mPa·s | 1.044 ± 0.022 | 1.151 ± 0.024 | 1.262 ± 0.026 mPa·s
313.15 K | 1004.26 ± 0.15 | 1015.71 ± 0.18 kg/m3 and 1015.74 ± 0.16 kg/m3 | 1026.6 ± 0.16 | 1036.92 ± 0.16 | 1046.79 ± 0.17 | 0.711 ± 0.015 | 0.775 ± 0.016 mPa·s and 0.776 ± 0.016 mPa·s | 0.841 ± 0.018 | 0.917 ± 0.019 | 1.001 ± 0.021 mPa·s and 1 ± 0.021 mPa·s
323.15 K | 999.96 ± 0.15 | 1011.28 ± 0.15 kg/m3 | 1022.09 ± 0.16 | 1032.28 ± 0.16 | 1042.15 ± 0.16 | 0.592 ± 0.013 | 0.642 ± 0.014 mPa·s | 0.693 ± 0.015 | 0.752 ± 0.016 | 0.814 ± 0.017 mPa·s

N=C(N)NCCC[C@H](N)C(=O)O [L-arginine] + O
Settings | mass density, 293.15 K [kg/m3] | mass density, 303.15 K [kg/m3] | mass density, 313.15 K [kg/m3] | mass density, 323.15 K [kg/m3] | viscosity, 293.15 K [mPa·s] | viscosity, 303.15 K [mPa·s] | viscosity, 313.15 K [mPa·s] | viscosity, 323.15 K [mPa·s]
m1 = 0.1 | 1003.17 ± 0.27 | 1000.55 ± 0.27 | 997.05 ± 0.27 | 992.84 ± 0.27 | 1.054 ± 0.023 | 0.838 ± 0.018 | 0.685 ± 0.015 | 0.572 ± 0.012
m1 = 0.2 | 1008 ± 0.27 | 1005.3 ± 0.27 | 1001.75 ± 0.27 | 997.5 ± 0.27 | 1.108 ± 0.024 | 0.879 ± 0.019 | 0.717 ± 0.015 | 0.598 ± 0.013
m1 = 0.3001 | 1012.68 ± 0.28 | 1009.91 ± 0.27 | 1006.31 ± 0.27 | 1002.03 ± 0.27 | 1.167 ± 0.025 | 0.923 ± 0.02 | 0.751 ± 0.016 | 0.625 ± 0.014
m1 = 0.4 | 1017.21 ± 0.28 | 1014.38 ± 0.28 | 1010.73 ± 0.28 | 1006.41 ± 0.27 | 1.23 ± 0.026 | 0.97 ± 0.021 | 0.788 ± 0.017 | 0.654 ± 0.014
m1 = 0.5 | 1021.6 ± 0.28 | 1018.71 ± 0.28 | 1015.01 ± 0.28 | 1010.67 ± 0.27 | 1.298 ± 0.028 | 1.021 ± 0.022 | 0.826 ± 0.018 | 0.684 ± 0.015
m1 = 0.6 | 1025.86 ± 0.29 | 1022.9 ± 0.29 | 1019.15 ± 0.28 | 1014.8 ± 0.28 | 1.362 ± 0.029 | 1.069 ± 0.023 | 0.864 ± 0.019 | 0.714 ± 0.015
m1 = 0.7 | 1030 ± 0.29 | 1026.97 ± 0.29 | 1023.18 ± 0.29 | 1018.82 ± 0.28 | 1.435 ± 0.031 | 1.124 ± 0.024 | 0.905 ± 0.019 | 0.747 ± 0.016

C[C@@H](O)[C@H](N)C(=O)O [L-threonine] + O
Settings | mass density, 293.15 K [kg/m3] | mass density, 303.15 K [kg/m3] | mass density, 313.15 K [kg/m3] | mass density, 323.15 K [kg/m3] | viscosity, 293.15 K [mPa·s] | viscosity, 303.15 K [mPa·s] | viscosity, 313.15 K [mPa·s] | viscosity, 323.15 K [mPa·s]
m1 = 0.0999 | 1002.41 ± 0.18 | 999.81 ± 0.18 | 996.32 ± 0.18 | 992.11 ± 0.18 | 1.035 ± 0.022 | 0.823 ± 0.017 | 0.673 ± 0.014 | 0.562 ± 0.012
m1 = 0.1999 | 1006.56 ± 0.18 | 1003.9 ± 0.18 | 1000.37 ± 0.18 | 996.12 ± 0.18 | 1.072 ± 0.023 | 0.849 ± 0.018 | 0.693 ± 0.015 | 0.579 ± 0.012
m1 = 0.2999 | 1010.63 ± 0.18 | 1007.92 ± 0.18 | 1004.34 ± 0.18 | 1000.05 ± 0.18 | 1.107 ± 0.023 | 0.876 ± 0.019 | 0.714 ± 0.015 | 0.595 ± 0.013
m1 = 0.4002 | 1014.64 ± 0.18 | 1011.87 ± 0.18 | 1008.25 ± 0.18 | 1003.93 ± 0.18 | 1.145 ± 0.024 | 0.905 ± 0.019 | 0.736 ± 0.016 | 0.613 ± 0.013
m1 = 0.5 | 1018.55 ± 0.18 | 1015.73 ± 0.18 | 1012.07 ± 0.18 | 1007.71 ± 0.18 | 1.184 ± 0.025 | 0.934 ± 0.02 | 0.759 ± 0.016 | 0.63 ± 0.013
m1 = 0.6 | 1022.4 ± 0.19 | 1019.52 ± 0.18 | 1015.83 ± 0.18 | 1011.44 ± 0.18 | 1.225 ± 0.026 | 0.965 ± 0.02 | 0.782 ± 0.017 | 0.649 ± 0.014
m1 = 0.6998 | 1026.16 ± 0.19 | 1023.24 ± 0.19 | 1019.52 ± 0.18 | 1015.1 ± 0.18 | 1.269 ± 0.027 | 0.996 ± 0.021 | 0.806 ± 0.017 | 0.667 ± 0.014

CC(C)[C@H](N)C(=O)O [L-valine] + O
Settings | mass density, m1 = 0.1 [kg/m3] | mass density, m1 = 0.2001 [kg/m3] | mass density, m1 = 0.3001 [kg/m3] | mass density, m1 = 0.4002 [kg/m3] | mass density, m1 = 0.5 [kg/m3] | viscosity, m1 = 0.1 [mPa·s] | viscosity, m1 = 0.2001 [mPa·s] | viscosity, m1 = 0.3001 [mPa·s] | viscosity, m1 = 0.4002 [mPa·s] | viscosity, m1 = 0.5 [mPa·s]
293.15 K | 1000.88 ± 0.18 | 1003.51 ± 0.18 | 1006.08 ± 0.18 | 1008.6 ± 0.18 | 1011.05 ± 0.18 | 1.044 ± 0.022 | 1.089 ± 0.023 | 1.135 ± 0.024 | 1.184 ± 0.025 | 1.233 ± 0.026
303.15 K | 998.29 ± 0.18 | 1000.88 ± 0.18 | 1003.41 ± 0.18 | 1005.89 ± 0.18 | 1008.31 ± 0.18 | 0.829 ± 0.018 | 0.862 ± 0.018 | 0.896 ± 0.019 | 0.929 ± 0.02 | 0.965 ± 0.02
313.15 K | 994.81 ± 0.18 | 997.37 ± 0.18 | 999.88 ± 0.18 | 1002.33 ± 0.18 | 1004.72 ± 0.18 | 0.678 ± 0.014 | 0.702 ± 0.015 | 0.728 ± 0.015 | 0.753 ± 0.016 | 0.779 ± 0.017
323.15 K | 990.6 ± 0.18 | 993.11 ± 0.18 | 995.57 ± 0.18 | 997.98 ± 0.18 | 1000.34 ± 0.18 | 0.565 ± 0.012 | 0.585 ± 0.012 | 0.604 ± 0.013 | 0.624 ± 0.013 | 0.644 ± 0.014
